Measured values reported in ChEMBL document CHEMBL3885861, “Open TG-GATES”.

Species on record: Rattus norvegicus
Assay: Open TG-GATES - Regimen: Single
Assay type: toxicity, organism-based, Sprague-Dawley
Parameters: regimen Single, gender Male, age 6 weeks
Conditions: in vivo, po, 200 mg/kg, route gavage, dose level Low; for APTT / Bas / Eos / Fbg / Hb / Ht / Lym / MCH / MCHC / MCV / Mono / Neu / PT / Plat / RBC / Ret / WBC: tissue Blood; for KIDNEY_L / KIDNEY_R / KIDNEY_TOTAL: tissue Kidney; for LIVER: tissue Liver; for A/G / ALP / ALT / AST / BUN / CRE / Ca / Cl / DBIL / GLC / IP / K / LDH / Na / PL / RALB / TBIL / TC / TG / TP / gamma-GTP: tissue Plasma

For NNC(=O)c1ccncc1 [ISONIAZID], the TERMINAL_BW (3 h) was 222.6 g, the APTT (3 h) was 18.4 s and the Bas (3 h) was 0%. It also gave an Eos (3 h) of 0.8%, a Fbg (3 h) of 239.8 mg/dL and a Hb (3 h) of 13.6 g/dL. For the same molecule, the Ht (3 h) was 38%, the Lym (3 h) was 74.4% and the MCH (3 h) was 22.1 pg. For the same molecule, the MCHC (3 h) was 35.8%, the MCV (3 h) was 61.6 fL and the Mono (3 h) was 2%. It also gave a Neu (3 h) of 22.4%, a PT (3 h) of 12.2 s and a Plat (3 h) of 126 x10_4/uL. The RBC (3 h) was 617.4 x10_4/ul, the Ret (3 h) was 7.7% and the WBC (3 h) was 80.9 x10_2/uL. It also gave a KIDNEY_L (3 h) of 1 g, a KIDNEY_R (3 h) of 1 g and a KIDNEY_TOTAL (3 h) of 2 g. The LIVER (3 h) was 9.3 g, the A/G (3 h) was 1.6 and the ALP (3 h) was 918.8 IU/L. It also gave an ALT (3 h) of 35.2 IU/L, an AST (3 h) of 70 IU/L and a BUN (3 h) of 8.8 mg/dL. For the same molecule, the CRE (3 h) was 0.4 mg/dL, the Ca (3 h) was 10.3 mg/dL and the Cl (3 h) was 105.2 meq/L. For the same molecule, the DBIL (3 h) was 0.066 mg/dL, the GLC (3 h) was 211 mg/dL and the IP (3 h) was 10.1 mg/dL. For the same molecule, the K (3 h) was 3.6 meq/L, the LDH (3 h) was 175.2 IU/L and the Na (3 h) was 142.8 meq/L. For the same molecule, the PL (3 h) was 137 mg/dL, the RALB (3 h) was 3.5 g/dL and the TBIL (3 h) was 0.1 mg/dL. For the same molecule, the TC (3 h) was 76.4 mg/dL, the TG (3 h) was 57.8 mg/dL and the TP (3 h) was 5.7 g/dL. For the same molecule, the gamma-GTP (3 h) was 1 IU/L, the TERMINAL_BW (6 h) was 219 g and the APTT (6 h) was 18.5 s. The Bas (6 h) was 0%, the Eos (6 h) was 1% and the Fbg (6 h) was 225 mg/dL. For the same molecule, the Hb (6 h) was 13.7 g/dL, the Ht (6 h) was 38.3% and the Lym (6 h) was 76.4%. For the same molecule, the MCH (6 h) was 21.7 pg, the MCHC (6 h) was 35.8% and the MCV (6 h) was 60.5 fL. The Mono (6 h) was 2.6%, the Neu (6 h) was 19% and the PT (6 h) was 12 s. For the same molecule, the Plat (6 h) was 126.8 x10_4/uL, the RBC (6 h) was 633.8 x10_4/ul and the Ret (6 h) was 7.6%. It also gave a WBC (6 h) of 87.2 x10_2/uL, a KIDNEY_L (6 h) of 0.9 g and a KIDNEY_R (6 h) of 0.9 g. For the same molecule, the KIDNEY_TOTAL (6 h) was 1.9 g, the LIVER (6 h) was 9.6 g and the A/G (6 h) was 1.5. For the same molecule, the ALP (6 h) was 735.6 IU/L, the ALT (6 h) was 28.4 IU/L and the AST (6 h) was 58 IU/L. For the same molecule, the BUN (6 h) was 8.2 mg/dL, the CRE (6 h) was 0.4 mg/dL and the Ca (6 h) was 10.2 mg/dL. For the same molecule, the Cl (6 h) was 104.8 meq/L, the DBIL (6 h) was 0.064 mg/dL and the GLC (6 h) was 211 mg/dL. The IP (6 h) was 9.5 mg/dL, the K (6 h) was 3.9 meq/L and the LDH (6 h) was 197.4 IU/L. For the same molecule, the Na (6 h) was 142.4 meq/L, the PL (6 h) was 140.8 mg/dL and the RALB (6 h) was 3.3 g/dL. For the same molecule, the TBIL (6 h) was 0.1 mg/dL, the TC (6 h) was 76 mg/dL and the TG (6 h) was 71.2 mg/dL. For the same molecule, the TP (6 h) was 5.5 g/dL, the gamma-GTP (6 h) was 1 IU/L and the TERMINAL_BW (9 h) was 218.2 g. For the same molecule, the APTT (9 h) was 18.8 s, the Bas (9 h) was 0.2% and the Eos (9 h) was 0.6%. It also gave a Fbg (9 h) of 228.2 mg/dL, a Hb (9 h) of 13.7 g/dL and a Ht (9 h) of 37.9%. For the same molecule, the Lym (9 h) was 75%, the MCH (9 h) was 21.8 pg and the MCHC (9 h) was 36%. The MCV (9 h) was 60.6 fL, the Mono (9 h) was 3% and the Neu (9 h) was 20.8%. For the same molecule, the PT (9 h) was 12.3 s, the Plat (9 h) was 119 x10_4/uL and the RBC (9 h) was 626.2 x10_4/ul. It also gave a Ret (9 h) of 7.8%, a WBC (9 h) of 82.5 x10_2/uL and a KIDNEY_L (9 h) of 0.9 g. It also gave a KIDNEY_R (9 h) of 0.9 g, a KIDNEY_TOTAL (9 h) of 1.8 g and an LIVER (9 h) of 8.8 g. For the same molecule, the A/G (9 h) was 1.7, the ALP (9 h) was 793.2 IU/L and the ALT (9 h) was 23.4 IU/L. For the same molecule, the AST (9 h) was 44.6 IU/L, the BUN (9 h) was 9.4 mg/dL and the CRE (9 h) was 0.4 mg/dL. For the same molecule, the Ca (9 h) was 10.5 mg/dL, the Cl (9 h) was 105 meq/L and the DBIL (9 h) was 0.064 mg/dL. It also gave a GLC (9 h) of 195.2 mg/dL, an IP (9 h) of 9.3 mg/dL and a K (9 h) of 3.9 meq/L. For the same molecule, the LDH (9 h) was 211.4 IU/L, the Na (9 h) was 142.8 meq/L and the PL (9 h) was 150.2 mg/dL. For the same molecule, the RALB (9 h) was 3.5 g/dL, the TBIL (9 h) was 0.1 mg/dL and the TC (9 h) was 80.2 mg/dL. The TG (9 h) was 77.2 mg/dL, the TP (9 h) was 5.5 g/dL and the gamma-GTP (9 h) was 1 IU/L. It also gave a TERMINAL_BW (24 h) of 229.4 g, an APTT (24 h) of 18.3 s and a Bas (24 h) of 0.8%. For the same molecule, the Eos (24 h) was 1%, the Fbg (24 h) was 229.2 mg/dL and the Hb (24 h) was 13.5 g/dL. The Ht (24 h) was 37.6%, the Lym (24 h) was 78.8% and the MCH (24 h) was 21.7 pg. The MCHC (24 h) was 36.1%, the MCV (24 h) was 60 fL and the Mono (24 h) was 2.4%. The Neu (24 h) was 16%, the PT (24 h) was 11.7 s and the Plat (24 h) was 134.2 x10_4/uL. It also gave an RBC (24 h) of 626.6 x10_4/ul, a Ret (24 h) of 6.5% and a WBC (24 h) of 89.2 x10_2/uL. For the same molecule, the KIDNEY_L (24 h) was 1 g, the KIDNEY_R (24 h) was 1 g and the KIDNEY_TOTAL (24 h) was 2 g. It also gave an LIVER (24 h) of 10.3 g, an A/G (24 h) of 1.6 and an ALP (24 h) of 1043.4 IU/L. The ALT (24 h) was 30 IU/L, the AST (24 h) was 58.2 IU/L and the BUN (24 h) was 15.6 mg/dL. It also gave a CRE (24 h) of 0.4 mg/dL, a Ca (24 h) of 10.8 mg/dL and a Cl (24 h) of 103 meq/L. It also gave a DBIL (24 h) of 0.06 mg/dL, a GLC (24 h) of 200.4 mg/dL and an IP (24 h) of 8.5 mg/dL. The K (24 h) was 4.3 meq/L, the LDH (24 h) was 221.4 IU/L and the Na (24 h) was 141.8 meq/L. The PL (24 h) was 139 mg/dL, the RALB (24 h) was 3.6 g/dL and the TBIL (24 h) was 0.1 mg/dL. The TC (24 h) was 71.4 mg/dL, the TG (24 h) was 101.6 mg/dL and the TP (24 h) was 5.7 g/dL. It also gave a gamma-GTP (24 h) of 1.4 IU/L.
